Results reported in patent US20060222595A1, “Nanoparticles for therapeutic and diagnostic applications” (priority 2005, published 2006).

Assay: Saturation concentration of agents on gold nanoparticles (UV-Visible absorbance)
Assay type: physicochemical
Method: The individual saturation concentrations of a monoclonal anti-VEGF antibody agent and a gemcitabine agent to gold nanoparticles were determined in the following manner. Eight tubes containing 1 ml of gold nanoparticles each were incubated with increasing concentrations of the anti-VEGF antibody for 30 minutes, followed by an aggregation assay involving incubation with 100 μl of a 10% NaCl solution. Approximately 15 min. after the addition of the NaCl solution, the UV-Visible spectra were recorded using a Shimadzu model system (UV2401 PC), and the saturation concentration of the antibody was determined.
The attachment of gemcitabine to the gold nanoparticles and the determination of its saturation concentration were performed similarly.
The saturation concentration of gemcitabine on the gold nanoparticles was determined in a similar manner. Gold nanoparticles were incubated with different concentrations of gemcitabine for 30 min., and their UV-Visible spectra were recorded. […] This shift in Ymax value with a concomitant decrease in absorbance and a broadening of the spectra may be attributed to the aggregation of gold nanoparticles upon the addition of gemcitabine beyond the 20 μg limit. […]

In the case of `Nc1ccn([C@@H]2O[C@H](CO)[C@@H](O)C2(F)F)c(=O)n1` [gemcitabine], the “saturation concentration of gemcitabine on gold nanoparticles (absorbance maximum)” value (30 min incubation, UV-Visible spectra) is reported as 20 µg.
In the case of `NCCc1ccc(O)c(O)c1` [dopamine], the “saturation concentration of dopamine on gold nanoparticles” value (surface plasmon resonance band, UV-visible spectroscopy) is reported as ~30 µg/mL.
